Measured values as given in US8603818B1, “TGF-beta receptor inhibitors to enhance direct reprogramming” (The General Hospital Corporation, priority 2008, dated 2013).
Like-named read-outs stand apart in the source and are kept apart here.

Legend:
Sox2-GFP fibroblasts = test system: Sox2-GFP fibroblasts
Source text: 1A. Effect of Alk5 inhibitor treatment on the number of Sox2-GFP+iPS colonies
Fibroblasts cultures were established from mice expressing green-fluorescent protein (GFP) from the genomic locus of the pluripotency gene Sox2. Sox2-GFP fibroblasts were then infected with viruses expressing the reprogramming factors c-Myc, Klf4, Oct4 and Sox2 in the presence and absence of a chemical inhibitor highly specific for the TGF-beta receptor Alk5 (ALK5 inhibitor H). GFP+colonies with embryonic stem (ES) cell morphology were scored 20 days after infection.

[1] = test system: Sox2, cMyc, Nanog expression in infected MEFs
Experimental: MEFs were infected with various factor combinations, then treated with dox for three days in the presence or absence of […] Alk5 inhibitor (1 μM). qPCR analysis was done using primers that specifically detect endogenous Sox2 or cMyc, as well as total Nanog. Experiments were done with both biological and technical triplicates, and a Student's T-test (paired, two-tailed) was used to assess statistical significance.
RNA was extracted by using a Qiagen RNeasy kit (74104), then converted to cDNA with the Superscript III First-Strand synthesis system (Invitrogen) using oligo-dT primers. qRT-PCRs were carried out using Brilliant II SYBR Green mix (Stratagene) and run on a Stratagene MXPro400. Reactions were carried out in duplicate with -RT controls, and data were analyzed using the delta-delta Ct method.

secondary STEMCCA MEFs = assay: Dose-response of iPSC induction in secondary STEMCCA MEFs; format: cell-based, mice
Source text: 3B. Dose-response curve for the Alk5 inhibitor in secondary STEMCCA MEFs.
Secondary STEMCCA MEFs were used to establish another dose-response curve for the Alk5 inhibitor.

[2] = test system: Secondary cells carrying the polycistronic STEMCCA construct; settings: dox 2 days; inhibitor 1 μM
Experimental: 7B. Annexin V and propidium iodide (PI) staining to quantify apoptosis during iPSC induction. […] Annexin V-positive and PI-negative cells represent the fraction of living cells in the process of apoptosis.
Annexin V and propidium iodide staining was done using the Annexin V-FITC kit (BD Pharmingen, 556547) according to manufacturer directions. Cells were analyzed by flow cytometry on a FACSCalibur (BD).

[3] = test system: embryonic stem cells+MEFs; assay: Reprogramming by cell fusion; settings: data not shown
secondary MEF lines = settings: inhibitor 2 μM, colonies day 16
Experimental: Kinetics of reprogramming in two secondary MEF lines. Dox was applied for either 4, 6, 8, or 10 days, with or without the Alk5 inhibitor (2 μM). Colonies were quantified on day 16 based on morphology and dox independence.
To this end, we employed a “secondary system” consisting of MEFs isolated from iPSC-derived chimeras.
In two different secondary MEF lines, the effect of Alk5 inhibition on both the efficiency and kinetics of reprogramming was tested. In this experiment, dox was applied for 4, 6, 8, or 10 days, either in the presence or absence of the Alk5 inhibitor, then quantified iPSC colony number on day 16.

[4] = test system: MEFs infected with OSK or OSMK; settings: inhibitor 1 μM
Source text: 7A. […] Cells were counted at each timepoint noted, and values represent the fractional change in cell number: (fraction of starting cell number at timepoint b−fraction of starting cell number at timepoint a)/time between b and a.
In support of this, it has been shown that activation of TGF-β signaling can promote an epithelial-to-mesenchymal transition (Valcourt, U., et al., (2005) Mol Biol Cell 16, 1987-2002); fibroblast reprogramming involves a mesenchymal-to-epithelial conversion, which may be enhanced by inhibition of the TGF-β signaling pathway.

[5] = test system: four-factor infected MEFs; assay: iPSC induction in four-factor infected MEFs (dox-inducible lentiviruses); format: cell-based, mice; settings: for efficiency of iPSC formation / iPSC colonies per well: 1 ng/mL ligand during dox induction, dox 12d, counts day 16
Experimental: 2A. Alkaline phosphatase stain for primary iPSC colonies, treated with or without the Alk5 inhibitor (1 μM) during dox induction. MEFs were infected with four factors and colonies were stained on day 12 (8d+dox/4d−dox).
2B. Kinetics of reprogramming in MEFs infected with four factors.
2D. Dose-response curve for the Alk5 inhibitor in MEFs induced with four factors.
2E Effect of TGF-β ligands in reprogramming, using four-factor infected MEFs (dox for 12d; counts on day 16 based on Oct4 immunostaining). TGF-β concentrations: low, 1 ng/mL; medium, 2.5 ng/mL; high, 5 ng/mL.
2F. Timing of Alk5 inhibitor action. The Alk5 inhibitor (1 μM) was applied in 4-day time intervals. Control=no inhibitor, Full-time=inhibitor added days 1-16.
2G. […] Inhibitor (1 μM) was applied for either 3 days before (−3 to 0d) or during the first 3 days of dox induction (0 to +3d), or both (−3d to +3d). Control=no inhibitor.
To induce reprogramming, MEFs were infected with a reverse tetracycline transactivator (rtTA) transgene with doxycycline-inducible lentiviruses encoding the four reprogramming factors as previously described (Stadtfeld, M., et al., (2008) Cell Stem Cell 2, 230-240).
It was next sought to establish a dose-response curve for the Alk5 inhibitor. Using four-factor infected MEFs, concentrations of the Alk5 inhibitor were tested over a 1000-fold range, from 4 nM to 4 μM. […] To verify that manipulation of TGF-β signaling affects reprogramming, it was investigated whether pathway activation would inhibit iPSC formation. Using four-factor infected MEFs, increasing concentrations of TGF-β1 or TGF-β2 were applied during the time of dox induction.
To gain further insight into the mode of action of the Alk5 inhibitor, the temporal window during which the inhibitor elicited its strongest effect was examined. In four-factor infected MEFs, the inhibitor was applied in 4-day intervals from days 0-16 of reprogramming. […] To test this, the inhibitor was applied in 3-day time intervals: before dox administration (days −3 to 0) to test for a priming effect, during the first 3 days of reprogramming (days 0 to +3) as a control for the efficiency increase, during both intervals (days−3 to +3) to test for a synergistic effect, and a no-inhibitor control as a baseline measure (FIG. 1G).

primary MEFs = assay: Replacement of reprogramming factors in primary MEFs infected with factor combinations (OSK, OMK, OK)
Experimental: Replacement of the role of cMyc with the Alk5 inhibitor (1 μM). MEFs were infected with either three (OSK) or four (OSMK) factors. Dox was withdrawn on day 8 and colonies were quantified on day 12 based on morphology and dox independence.
Replacement of the role of Sox2 with the Alk5 inhibitor (1 μM). MEFs were infected with three (OMK) or two (OK) factors and induced with dox for 16 days, then split on day 18 into media without dox. Image depicts alkaline phosphatase stain of passage 1 cultures.
Experiments were designed to investigate whether the Alk5 inhibitor could function to replace exogenous expression of any of the reprogramming factors. To this end, primary MEFs were infected with different combinations of the four factors in the presence or absence of inhibitor (FIG. 4) and then scored for iPSC formation.
For all of the other replacement conditions, dox was withdrawn on day 16, which would provide sufficient time for reprogramming. […] Nonetheless, colonies were picked from both conditions and tested for their potential to form dox-independent lines.

human fibroblast = settings: data not shown
[6] = 2.5 ng/mL ligand during dox induction
[7] = 5 ng/mL ligand during dox induction

Molecule: Cc1cccc(-c2n[nH]cc2-c2ccc3ncccc3n2)n1 [Alk5 inhibitor, 2-(3-(6-Methylpyridin-2-yl)-1H-pyrazol-4-yl)-1,5 napththyridine]
- fold more GFP+ colonies with ES cell morphology (Sox2-GFP fibroblasts; four factors, scored 20 days after infection, versus absence of inhibitor): 5-10 fold
- onset of GFP expression in colonies (Sox2-GFP fibroblasts; versus colonies formed in the absence of the chemical): earlier
- induction of cMyc ([1]; cells infected with OSK, dox three days, inhibitor 1 μM): 1.3 fold
- change in expression of other genes (Sox2: OMK, OSMK; cMyc: OSMK; Nanog: OMK, OSK, OSMK) ([1]; dox three days, inhibitor 1 μM): No other genes showed a statistically significant change
- induction of Sox2 or cMyc ([1]; other cells (OMK or OSMK)): no significant induction
- increase in efficiency at maximum (secondary STEMCCA MEFs; at 0.5 μM): ~60 fold
- efficiency at higher doses (secondary STEMCCA MEFs; doses above the maximum): began to decline
- concentration giving maximum efficiency (secondary STEMCCA MEFs; dox and inhibitor 8 days, Oct4 immunostaining day 12): 0.5 µM
- apoptosis, Annexin V staining, inhibitor-treated versus untreated cells [2]: negligible difference
- effect on reprogramming by cell fusion [3]: negative result
- increase in reprogramming (secondary MEF lines; one secondary MEF line): 2 fold
- increase in reprogramming (secondary MEF lines; the other secondary MEF line): 30 fold
- proliferation during reprogramming ([4]; around day 6): decrease in proliferation
- cell number early in reprogramming ([4]; day 2): mitigated the decrease in cell number
- effect of inhibitor use during reprogramming on the resulting iPSCs (pluripotency markers, teratoma) ([5]; 4-day iPSCs): no adverse effect
- frequency of iPSC colonies ([5]; four days of dox, inhibitor 2 μM, counted day 16): 0.0013%
- enhancement in number of iPSC colonies ([5]; highest dose tested (range 4 nM to 4 μM), dox and inhibitor 8 days, Oct4 immunostaining day 12): 30 fold
- reprogramming efficiency by timing of inhibitor ([5]; inhibitor 1 μM applied after dox withdrawal (day 12)): no effect
- reprogramming efficiency by timing of inhibitor ([5]; inhibitor 1 μM applied during 5-8 day interval): strong enhancement
- reprogramming efficiency by timing of inhibitor ([5]; inhibitor 1 μM applied during first four days, dox withdrawn day 12, counts day 16): largest increase in efficiency
- number of iPSC colonies (alkaline phosphatase stain) ([5]; inhibitor 1 μM during dox induction, stained day 12 (8d+dox/4d−dox)): striking increase
- enhancement in efficiency ([5]; inhibitor 1 μM during first 3 days of factor expression (0 to +3d)): −5 fold
- increase in efficiency ([5]; inhibitor 1 μM in −3d/+3d group): comparable to the 0 to +3d group
- reprogramming efficiency, priming test ([5]; inhibitor 1 μM prior to factor expression (days 3 to 0), dox withdrawn day 8, counts day 12): slight reduction in efficiency
- iPSC formation ([5]; three days of dox, inhibitor 2 μM, counted day 16): not obtained
- colony formation in the absence of both cMyc and Sox2 (primary MEFs; OK + inhibitor 1 μM): could not be obtained
- dox-independent colonies after passage without dox (primary MEFs; OMK+inhibitor 1 μM): gave rise to dox-independent colonies
- colony formation in cMyc replacement condition (primary MEFs; OSK+inhibitor, day 8): colonies were observed
- picked colonies forming dox-independent iPSC lines (primary MEFs; Sox2 replacement condition (OMK), inhibitor-treated culture): 3/22
- colonies morphologically identical to iPSCs (primary MEFs; Sox2 replacement condition (OMK), inhibitor-treated culture, dox 16 days): 50 colonies
- efficiency of OSK+inhibitor relative to four factors alone (OSK+M) (primary MEFs; inhibitor 1 μM, dox withdrawn day 8, colonies day 12): 2.5 fold
- increase in the efficiency of human fibroblast reprogramming (human fibroblast): not observed

Molecule: TGF-β1: TGF-β ligand obtained from Peprotech
- efficiency of iPSC formation [5]: ~0.0013%
- iPSC colonies per well [5]: one
- iPSC formation [5, 6]: undetectable
- iPSC formation [5, 7]: undetectable

B1: TGF-β2: TGF-β ligand obtained from Peprotech (protein, UniProt P61812 303-414, looked up)
Transforming growth factor …: ALDAAYCFRNVQDNCCLRPLYIDFKRDLGWKWIHEPKGYNANFCAGACPYLWSSDTQHSRVLSLYNTINPEASASPCCVSQDLEPLTILYYIGKTPKIEQLSNMIVKSCKCS
- efficiency of iPSC formation [5]: ~0.0013%
- iPSC colonies per well [5]: one
- iPSC formation [5, 6]: undetectable
- iPSC formation [5, 7]: undetectable
